In patent US12324798B1, “Leonurine nanocomposite hydrogel and preparation methods and applications thereof” (WEST CHINA HOSPITAL OF SICHUAN UNIVERSITY, priority 2023, dated 2025):

Test system: LPS-stimulated Raw264.7 cells
Assay: Western blotting of pro-inflammatory cytokines
Type: cell-based
Conditions: WB; co-culture with LPS-stimulated Raw264.7 cells for 2 days; vs LPS
Experimental: In some embodiments, to assess whether M1 macrophage-targeted FA-PDA nanocarriers enhance the efficiency of anti-inflammatory therapy with loaded Leon, FA-PDA@Leon was co-cultured with LPS-stimulated Raw264.7 cells for 2 days, after which western blotting (WB) analysis was performed. A first group (Group 1) in FIG. 4G to FIG. 4J represents the control group (NC), a second group (Group 2) represents the LPS treatment, a third group (Group 3) represents the LPS and Leon co-treatment, a fourth group (Group 4) represents the LPS and PDA co-treatment, the fifth group (Group 5) represents the LPS and PDA@Leon co-treatment, and a sixth group (Group 6) indicates the LPS and FA-PDA@Leon co-treatment.

COc1cc(C(=O)OCCCCNC(=N)N)cc(OC)c1O [Leon, leonurine]
protein expression of pro-inflammatory cytokines (iNOS, IL-13, IL-6, TNF-α): down-regulated
